Test results taken from ChEMBL document CHEMBL6120940, “Discovery of N-Aryl-N'-[4-(aryloxy)cyclohexyl]squaramide-Based Inhibitors of LXR/SREBP-1c Signaling Pathway Ameliorating Steatotic Liver Disease: Navigating the Role of SIRT6 Activation” (J Med Chem, 2024).
pIC50: −log10 of the molar value.

Key:
[1] = Downregulation of SREBP-1c mRNA expression in human HepG2 cells at 10 uM pretreated with compound for 30 mins followed by T0901317 addition and measured after 12 hrs by RT-qPCR analysis relative to control; type: functional; settings: time 12.5 hrs
[2] = target: T1, Sterol regulatory element-binding protein 1 (Homo sapiens) (UniProt P36956); test: Inhibition of SREBP-1c transcriptional activity in human HepG2 cells expressing LXRalpha/RXRalpha assessed as reduction in SRE-luciferase level at 10 uM pretreated with compound for 30 mins followed by T0901317 addition and measured after 12 hrs by Dual-Glo luciferase assay relative to control; type: cell-based; settings: time 12.5 hrs
T1 sequence (whole entry): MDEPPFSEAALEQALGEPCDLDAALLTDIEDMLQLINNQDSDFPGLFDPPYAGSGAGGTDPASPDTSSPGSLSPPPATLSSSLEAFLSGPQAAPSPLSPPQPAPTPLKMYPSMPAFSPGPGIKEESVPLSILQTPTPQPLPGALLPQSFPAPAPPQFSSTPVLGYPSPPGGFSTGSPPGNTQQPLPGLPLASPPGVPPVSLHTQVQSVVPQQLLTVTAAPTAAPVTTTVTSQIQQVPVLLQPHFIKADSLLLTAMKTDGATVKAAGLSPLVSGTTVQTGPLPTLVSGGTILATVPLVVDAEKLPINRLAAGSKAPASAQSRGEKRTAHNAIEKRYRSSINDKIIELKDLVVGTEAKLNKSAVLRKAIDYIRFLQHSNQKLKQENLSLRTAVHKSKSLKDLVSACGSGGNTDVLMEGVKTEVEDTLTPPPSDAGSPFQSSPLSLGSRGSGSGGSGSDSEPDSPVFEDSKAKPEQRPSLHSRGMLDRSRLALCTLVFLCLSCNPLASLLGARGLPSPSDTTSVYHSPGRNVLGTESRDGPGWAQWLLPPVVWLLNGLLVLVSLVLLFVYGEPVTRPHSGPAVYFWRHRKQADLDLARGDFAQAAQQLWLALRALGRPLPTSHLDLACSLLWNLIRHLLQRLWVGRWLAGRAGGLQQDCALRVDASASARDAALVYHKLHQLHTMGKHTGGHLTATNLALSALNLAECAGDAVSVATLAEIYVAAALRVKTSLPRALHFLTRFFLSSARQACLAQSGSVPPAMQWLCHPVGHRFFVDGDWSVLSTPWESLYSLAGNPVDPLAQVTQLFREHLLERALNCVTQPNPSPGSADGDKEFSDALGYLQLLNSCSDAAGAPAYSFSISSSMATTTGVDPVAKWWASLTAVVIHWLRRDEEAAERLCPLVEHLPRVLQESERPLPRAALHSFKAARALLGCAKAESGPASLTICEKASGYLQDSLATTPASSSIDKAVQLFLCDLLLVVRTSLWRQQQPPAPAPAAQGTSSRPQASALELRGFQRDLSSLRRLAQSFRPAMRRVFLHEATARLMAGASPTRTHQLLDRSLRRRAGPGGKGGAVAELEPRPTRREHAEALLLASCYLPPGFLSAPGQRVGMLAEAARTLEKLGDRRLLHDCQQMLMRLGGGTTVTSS

[3] = Metabolic stability in human liver microsomes at 1 uM measured after 30 mins in presence of NADPH regeneration system by LC-MS/MS analysis; type: ADME, Microsome; settings: read-out: Stability
[4] = Metabolic stability in rat liver microsomes at 1 uM measured after 30 mins in presence of NADPH regeneration system by LC-MS/MS analysis; type: ADME, Microsome; settings: read-out: Stability
[5] = Metabolic stability in mouse liver microsomes at 1 uM measured after 30 mins in presence of NADPH regeneration system by LC-MS/MS analysis; type: ADME, Microsome; settings: read-out: Stability
[6] = Stability in human plasma measured after 120 mins by LC-MS/MS analysis; type: ADME, cell-free; settings: read-out: Stability
[7] = Stability in rat plasma measured after 120 mins by LC-MS/MS analysis; type: ADME, cell-free; settings: read-out: Stability
[8] = Stability in mouse plasma measured after 120 mins by LC-MS/MS analysis; type: ADME, cell-free; settings: read-out: Stability
CYP1A2 = target: T2, CYP1A2 (Homo sapiens, UniProt P05177); test: Inhibition of CYP1A2 in human liver microsomes at 10 uM using phenacetin as substrate preincubated for 5 mins followed by NADPH generating system addition and measured after 15 mins relative to control; type: ADME, Microsome; settings: probe phenacetin, time 20 min
T2 sequence (P05177 whole entry): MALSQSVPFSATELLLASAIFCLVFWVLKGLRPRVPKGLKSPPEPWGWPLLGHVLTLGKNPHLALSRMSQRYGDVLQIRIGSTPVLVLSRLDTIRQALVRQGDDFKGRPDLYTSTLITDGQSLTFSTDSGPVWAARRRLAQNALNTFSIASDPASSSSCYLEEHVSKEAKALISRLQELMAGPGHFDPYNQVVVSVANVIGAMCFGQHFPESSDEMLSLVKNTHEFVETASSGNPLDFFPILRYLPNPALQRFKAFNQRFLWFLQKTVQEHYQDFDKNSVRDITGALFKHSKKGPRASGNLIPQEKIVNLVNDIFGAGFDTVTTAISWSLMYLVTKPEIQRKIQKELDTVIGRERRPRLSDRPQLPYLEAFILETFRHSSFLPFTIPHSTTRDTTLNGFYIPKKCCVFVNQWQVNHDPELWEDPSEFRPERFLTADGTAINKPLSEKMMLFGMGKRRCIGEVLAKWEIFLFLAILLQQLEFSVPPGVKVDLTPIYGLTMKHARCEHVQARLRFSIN

CYP2C9 = CYP2C9 (Homo sapiens, UniProt P11712); test: Inhibition of CYP2C9 in human liver microsomes at 10 uM using diclofenac as substrate preincubated for 5 mins followed by NADPH generating system addition and measured after 15 mins relative to control; type: ADME, Microsome; settings: probe diclofenac, time 20 min
CYP2C19 = CYP2C19 (Homo sapiens, UniProt P33261); test: Inhibition of CYP2C19 in human liver microsomes at 10 uM using S-mephenytoin as substrate preincubated for 5 mins followed by NADPH generating system addition and measured after 15 mins relative to control; type: ADME, Microsome; settings: probe S-mephenytoin, time 20 min
CYP2D6 = CYP2D6 (Homo sapiens, UniProt P10635); test: Inhibition of CYP2D6 in human liver microsomes at 10 uM using dextromethorphan as substrate preincubated for 5 mins followed by NADPH generating system addition and measured after 15 mins relative to control; type: ADME, Microsome; settings: probe dextromethorphan, time 20 min
CYP3A4 = CYP3A4 (Homo sapiens, UniProt P08684); test: Inhibition of CYP3A4 in human liver microsomes at 10 uM using midazolam as substrate preincubated for 5 mins followed by NADPH generating system addition and measured after 15 mins relative to control; type: ADME, Microsome; settings: probe midazolam, time 20 min
[9] = target: Voltage-gated inwardly rectifying potassium channel KCNH2 (Homo sapiens, UniProt Q12809); test: Inhibition of human ERG expressing HEK cells by whole-cell patch clamp assay; type: toxicity, cell-based
Chain of Voltage-gated inwardly rectifying potassium channel KCNH2 (Q12809 whole entry): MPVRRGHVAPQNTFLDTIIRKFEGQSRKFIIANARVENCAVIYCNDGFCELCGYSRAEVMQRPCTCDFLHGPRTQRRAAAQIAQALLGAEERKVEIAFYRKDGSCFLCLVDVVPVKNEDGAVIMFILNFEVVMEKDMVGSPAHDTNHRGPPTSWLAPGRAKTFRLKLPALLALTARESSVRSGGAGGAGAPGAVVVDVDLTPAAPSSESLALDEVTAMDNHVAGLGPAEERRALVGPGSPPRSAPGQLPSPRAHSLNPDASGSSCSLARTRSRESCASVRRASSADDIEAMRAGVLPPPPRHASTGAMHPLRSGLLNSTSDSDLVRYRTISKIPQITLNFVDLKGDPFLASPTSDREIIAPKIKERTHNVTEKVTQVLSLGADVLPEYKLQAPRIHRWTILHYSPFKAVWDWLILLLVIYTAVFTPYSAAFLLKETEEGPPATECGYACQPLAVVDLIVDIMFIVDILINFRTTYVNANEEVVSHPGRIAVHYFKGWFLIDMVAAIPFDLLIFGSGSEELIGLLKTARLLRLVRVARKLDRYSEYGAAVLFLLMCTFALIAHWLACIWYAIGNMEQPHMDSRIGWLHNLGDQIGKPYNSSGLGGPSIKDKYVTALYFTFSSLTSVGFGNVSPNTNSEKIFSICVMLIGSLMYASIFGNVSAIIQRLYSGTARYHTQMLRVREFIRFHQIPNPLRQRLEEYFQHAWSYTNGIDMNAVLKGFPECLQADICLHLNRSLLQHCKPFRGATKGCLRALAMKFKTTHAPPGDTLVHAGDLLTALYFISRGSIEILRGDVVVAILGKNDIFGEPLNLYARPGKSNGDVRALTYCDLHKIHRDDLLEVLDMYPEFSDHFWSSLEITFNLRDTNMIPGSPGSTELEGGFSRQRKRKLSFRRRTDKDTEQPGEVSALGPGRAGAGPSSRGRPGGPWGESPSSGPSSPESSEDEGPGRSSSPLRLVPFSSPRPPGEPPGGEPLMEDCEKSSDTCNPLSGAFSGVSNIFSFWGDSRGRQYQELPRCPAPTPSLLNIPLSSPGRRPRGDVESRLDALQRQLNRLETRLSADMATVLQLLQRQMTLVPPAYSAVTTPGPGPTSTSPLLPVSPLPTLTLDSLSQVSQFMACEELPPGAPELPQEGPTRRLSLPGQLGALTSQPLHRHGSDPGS

Chain of CYP2C19 (P33261 whole entry): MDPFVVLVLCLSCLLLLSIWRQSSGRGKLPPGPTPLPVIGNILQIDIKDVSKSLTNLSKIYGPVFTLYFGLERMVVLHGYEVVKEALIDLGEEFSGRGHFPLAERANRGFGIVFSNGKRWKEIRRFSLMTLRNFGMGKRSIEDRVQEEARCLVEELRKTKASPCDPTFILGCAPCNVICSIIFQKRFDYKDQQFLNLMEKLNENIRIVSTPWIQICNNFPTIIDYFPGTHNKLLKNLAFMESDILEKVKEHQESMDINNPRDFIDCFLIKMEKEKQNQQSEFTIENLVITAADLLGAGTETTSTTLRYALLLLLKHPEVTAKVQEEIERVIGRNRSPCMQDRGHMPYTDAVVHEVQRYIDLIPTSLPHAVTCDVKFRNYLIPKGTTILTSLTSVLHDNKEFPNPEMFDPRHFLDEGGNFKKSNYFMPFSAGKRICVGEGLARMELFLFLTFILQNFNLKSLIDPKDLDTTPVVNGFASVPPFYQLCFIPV
Chain of CYP2D6 (P10635 whole entry): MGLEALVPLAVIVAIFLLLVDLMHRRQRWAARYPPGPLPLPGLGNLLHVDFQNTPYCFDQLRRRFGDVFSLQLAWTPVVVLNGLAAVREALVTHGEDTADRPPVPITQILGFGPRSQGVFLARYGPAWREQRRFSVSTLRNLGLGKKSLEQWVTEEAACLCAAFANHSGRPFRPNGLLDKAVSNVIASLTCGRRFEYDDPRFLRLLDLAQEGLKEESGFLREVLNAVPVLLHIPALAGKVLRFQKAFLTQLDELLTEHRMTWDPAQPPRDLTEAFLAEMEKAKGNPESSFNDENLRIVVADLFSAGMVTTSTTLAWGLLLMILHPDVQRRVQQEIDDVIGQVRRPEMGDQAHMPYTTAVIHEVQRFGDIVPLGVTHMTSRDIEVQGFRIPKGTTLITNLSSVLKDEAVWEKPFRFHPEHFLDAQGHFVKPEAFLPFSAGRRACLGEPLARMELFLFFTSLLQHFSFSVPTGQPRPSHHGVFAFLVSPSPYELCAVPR
Chain of CYP2C9 (P11712 whole entry): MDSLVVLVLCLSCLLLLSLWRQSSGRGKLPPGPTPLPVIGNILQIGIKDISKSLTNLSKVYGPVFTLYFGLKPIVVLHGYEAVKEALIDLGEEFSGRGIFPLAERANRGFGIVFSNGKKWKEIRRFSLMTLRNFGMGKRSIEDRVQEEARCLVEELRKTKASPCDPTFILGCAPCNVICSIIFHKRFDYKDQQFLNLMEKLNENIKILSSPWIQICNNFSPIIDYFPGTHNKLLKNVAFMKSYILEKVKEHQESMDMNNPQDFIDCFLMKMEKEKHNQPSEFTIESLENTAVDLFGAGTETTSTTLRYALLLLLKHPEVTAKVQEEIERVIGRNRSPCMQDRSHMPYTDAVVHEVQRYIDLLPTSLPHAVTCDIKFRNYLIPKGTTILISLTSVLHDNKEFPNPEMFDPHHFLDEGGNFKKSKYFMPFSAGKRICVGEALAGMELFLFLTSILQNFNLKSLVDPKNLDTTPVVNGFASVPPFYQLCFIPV
Chain of CYP3A4 (P08684 whole entry): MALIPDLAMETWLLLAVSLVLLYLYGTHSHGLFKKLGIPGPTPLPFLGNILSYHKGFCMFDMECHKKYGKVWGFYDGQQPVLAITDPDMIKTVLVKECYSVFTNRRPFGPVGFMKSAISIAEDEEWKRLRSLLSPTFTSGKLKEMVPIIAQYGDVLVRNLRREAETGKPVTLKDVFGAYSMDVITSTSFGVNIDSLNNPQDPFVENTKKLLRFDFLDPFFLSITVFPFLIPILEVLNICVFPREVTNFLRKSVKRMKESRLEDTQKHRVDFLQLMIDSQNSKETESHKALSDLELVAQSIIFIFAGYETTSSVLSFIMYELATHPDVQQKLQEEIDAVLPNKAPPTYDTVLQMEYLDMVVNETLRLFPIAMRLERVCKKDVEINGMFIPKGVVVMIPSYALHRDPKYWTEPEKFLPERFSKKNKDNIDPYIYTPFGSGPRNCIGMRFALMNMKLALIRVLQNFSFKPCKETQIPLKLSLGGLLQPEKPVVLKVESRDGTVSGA

inhibition [2]: 32.6% | remaining at 0.5 h, 1 µM [3]: 15.5% | remaining at 0.5 h, 1 µM [4]: 26.5% | remaining at 0.5 h, 1 µM [5]: 31% | remaining at 2 h [6]: 96.3% | remaining at 2 h [7]: 93.1% | remaining at 2 h [8]: > 100% | inhibition at 0.25 h, 10 µM (CYP1A2): > 100% | inhibition at 0.25 h, 10 µM (CYP2C9): 56.9% | inhibition at 0.25 h, 10 µM (CYP2C19): 38.9% | inhibition at 0.25 h, 10 µM (CYP2D6): 86.2% | inhibition at 0.25 h, 10 µM (CYP3A4): 84%
Structure (SMILES): COc1ccccc1Nc1c(N[C@H]2CC[C@H](Oc3ccc(C#N)cc3)CC2)c(=O)c1=O
Activity [1]: 7.4% | pIC50 [9]: 6.31
